Some test systems named below: A498 renal; HCT-15 colon; KM12 colon; MDA-MB-435; OVCAR-3 ovarian; SK-MEL-28 melanoma; SNB-19 CNS; SNB-75 CNS.
What all share (experiment): NCI-60 cell line screen, 48 h

Molecules are shown by their SMILES. “And” between values parts separate entries of the source, which are not always exact repeats. Equal entries are not always repeated.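 Results reflect a 48-hour exposure of cells in 96-well plates to compound at five concentrations. GI50: concentration for 50% inhibition of growth. The concentration for full growth arrest is given as TGI.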 Some results are limits rather than exact numbers.

As for `COC(=O)Nc1nc2ccc(Sc3ccc(NC(=O)Nc4cc(C(F)(F)F)ccc4F)cc3)cc2[nH]1`, the GI50 was 2.71 µM in the assay with A498 renal; 1.62 µM with HCT-15 colon; 0.113 µM in the assay on KM12 colon; 0.605 µM in the assay with MDA-MB-435; 3.05 µM in the assay with OVCAR-3 ovarian; 2.81 µM in the assay on SK-MEL-28 melanoma. Also, the GI50 with SNB-19 CNS was 6.98 µM; with SNB-75 CNS, 3.32 µM. Moreover, the TGI in the assay with A498 renal stood at 10.7 µM; in the assay with HCT-15 colon, 8.19 µM; in the assay on KM12 colon, 3.99 µM; in the assay with MDA-MB-435, 2.71 µM; with OVCAR-3 ovarian it was 6.26 µM; in the assay with SK-MEL-28 melanoma, 16.5 µM. Also, the TGI in the assay on SNB-19 CNS stood at 25 µM; with SNB-75 CNS, 10.9 µM.
Regarding `CCC1(N2C(=O)c3c(F)c(F)c(F)c(F)c3C2=O)C(=O)NC(=O)N(c2ccccc2)C1=O` (centres undefined), the GI50 is 12.2 µM in the assay with A498 renal; 2.32 µM with HCT-15 colon; 2.58 µM with KM12 colon; 2.89 µM in the assay on MDA-MB-435; 1.67 µM with OVCAR-3 ovarian; 2.79 µM in the assay with SK-MEL-28 melanoma. Also, the GI50 is 3.93 µM in the assay with SNB-19 CNS and 1.9 µM in the assay with SNB-75 CNS. Besides, the TGI in the assay on A498 renal is 25.9 µM; with HCT-15 colon, 7.14 µM; with KM12 colon it was 8.31 µM; in the assay with MDA-MB-435, 8.02 µM; in the assay on OVCAR-3 ovarian, 4.1 µM; in the assay with SK-MEL-28 melanoma it was 10.6 µM. In addition, the TGI with SNB-19 CNS was found to be 16.9 µM; in the assay on SNB-75 CNS, 5.09 µM.
Take `O=C(CN=Cc1cccs1)CSC(c1ccccc1)c1ccccc1`: the GI50 was 16.6 µM in the assay with A498 renal; 17.7 µM in the assay on HCT-15 colon; 21 µM in the assay on KM12 colon; 17.7 µM in the assay with MDA-MB-435; 17.6 µM in the assay on OVCAR-3 ovarian; 27.7 µM in the assay with SK-MEL-28 melanoma. Besides, the GI50 in the assay with SNB-19 CNS was 32.5 µM; in the assay with SNB-75 CNS, 30.5 µM. Also, the TGI was 45.8 µM in the assay on A498 renal; 57.3 µM with HCT-15 colon; 52.5 µM in the assay with KM12 colon; 36.3 µM with MDA-MB-435; 48.1 µM in the assay with OVCAR-3 ovarian; above 100 µM with SK-MEL-28 melanoma. Also, the TGI with SNB-19 CNS and in the assay on SNB-75 CNS was above 100 µM each time.
In the case of `CCN(CC)CCOc1ccc(C2=C(c3ccccc3)CCc3cc(OC)ccc32)cc1`, the GI50 in the assay with A498 renal is 4.23 µM; in the assay with HCT-15 colon, 1.16 µM; in the assay on KM12 colon, 2.46 µM; with MDA-MB-435 it was 1.48 µM; in the assay with OVCAR-3 ovarian it was 5.64 µM; in the assay on SK-MEL-28 melanoma, 1.62 µM. Also, the results for the GI50 in the assay on SNB-19 CNS and in the assay with SNB-75 CNS were 2.38 µM and 1.4 µM, respectively. Besides, the TGI in the assay with A498 renal amounted to 9.44 µM; with HCT-15 colon, 4.06 µM; with KM12 colon it was 6.85 µM; in the assay on MDA-MB-435, 3.4 µM; in the assay on OVCAR-3 ovarian it was 15.7 µM; with SK-MEL-28 melanoma, 3.19 µM. The results for the TGI in the assay with SNB-19 CNS and in the assay with SNB-75 CNS were 7.42 µM and 4.62 µM, respectively.
Take `CCOP(=O)(OCC)C(F)(F)CC1CCCCC1`: the TGI in the assay with A498 renal, in the assay on HCT-15 colon, in the assay on KM12 colon, in the assay on MDA-MB-435, with OVCAR-3 ovarian and in the assay with SK-MEL-28 melanoma was above 10 µM each time. Also, the TGI in the assay with SNB-19 CNS and with SNB-75 CNS was above 10 µM in each case.
Regarding `CCCOc1c2cc(COC3OC(CO)C(O)C(O)C3O)cc1Cc1cc(COC3OC(CO)C(O)C(O)C3O)cc(c1OCCC)Cc1cc(COC3OC(CO)C(O)C(O)C3O)cc(c1OCCC)Cc1cc(COC3OC(CO)C(O)C(O)C3O)cc(c1OCCC)C2` (centres undefined), the GI50 is 88.4 µM and > 100 µM and 16.3 µM with A498 renal; > 100 µM and 42.1 µM in the assay with HCT-15 colon; 75.4 µM and > 100 µM and 19.3 µM in the assay with KM12 colon; 57.2 µM and > 100 µM and 20.6 µM in the assay with MDA-MB-435; 53.2 µM and > 100 µM and 19.3 µM in the assay with OVCAR-3 ovarian; > 100 µM and 14.5 µM with SK-MEL-28 melanoma. Besides, the GI50 is 66.1 µM and > 100 µM and 17.5 µM in the assay with SNB-19 CNS; 18.5 µM and 55.4 µM and 22.2 µM with SNB-75 CNS. Moreover, the TGI is > 100 µM and 42.5 µM with A498 renal; above 100 µM in the assay on HCT-15 colon; > 100 µM and 39.2 µM in the assay with KM12 colon; > 100 µM and 41.1 µM in the assay with MDA-MB-435; > 100 µM and 51.7 µM in the assay with OVCAR-3 ovarian; > 100 µM and 29 µM in the assay with SK-MEL-28 melanoma. Also, the TGI was > 100 µM and 32.1 µM in the assay on SNB-19 CNS; 93.7 µM and > 100 µM and 62.8 µM in the assay with SNB-75 CNS.
In the case of `C#Cc1ccc(-n2c(/C=C/c3cc(OC)c(OC)c(OC)c3)nc3ncccc3c2=O)cc1`, the GI50 is 2.63 µM with A498 renal; 5.58 µM with HCT-15 colon; 3.32 µM in the assay with KM12 colon; 1.98 µM in the assay with MDA-MB-435; 2.33 µM in the assay with OVCAR-3 ovarian; 34.6 µM in the assay with SK-MEL-28 melanoma. For the same molecule, the GI50 is 16.2 µM in the assay on SNB-19 CNS and 3.88 µM in the assay with SNB-75 CNS. The TGI with A498 renal is 9.84 µM; in the assay on HCT-15 colon, above 100 µM; in the assay on KM12 colon, 12.8 µM; in the assay on MDA-MB-435, 5.35 µM; with OVCAR-3 ovarian, 6.42 µM; in the assay with SK-MEL-28 melanoma, above 100 µM. Further, the TGI in the assay on SNB-19 CNS and in the assay with SNB-75 CNS was above 100 µM each time.
For `CN1CCN(C(=S)SCN2C(=O)c3ccccc3S2(=O)=O)CC1`, the GI50 is 93 µM in the assay on A498 renal; 21.3 µM in the assay on HCT-15 colon; 25.3 µM in the assay on KM12 colon; 28.2 µM in the assay with MDA-MB-435; 21.9 µM in the assay with OVCAR-3 ovarian; 14.4 µM with SK-MEL-28 melanoma. Further, the values for the GI50 with SNB-19 CNS and in the assay with SNB-75 CNS were above 100 µM and 24.5 µM, respectively. Also, the TGI in the assay with A498 renal is above 100 µM; in the assay on HCT-15 colon, 99.1 µM; in the assay with KM12 colon, above 100 µM; in the assay on MDA-MB-435, 99.4 µM; with OVCAR-3 ovarian, 63.2 µM; in the assay with SK-MEL-28 melanoma, 37.5 µM. For the same molecule, the figures for the TGI with SNB-19 CNS and with SNB-75 CNS were above 100 µM and 92.1 µM, respectively.
Take `C#Cc1cccc(Nc2ncnc3ccc(-c4cncc(NS(C)(=O)=O)c4)cc23)c1`: the GI50 was 0.372 µM in the assay with A498 renal; 3.47 µM with HCT-15 colon; 2.33 µM in the assay with KM12 colon; 2.94 µM in the assay on MDA-MB-435; 1.15 µM in the assay on OVCAR-3 ovarian; 1.47 µM with SK-MEL-28 melanoma. Also, the GI50 is 1.98 µM with SNB-19 CNS and 0.524 µM in the assay on SNB-75 CNS. Also, the TGI with A498 renal was 2.04 µM; with HCT-15 colon, 16.7 µM; with KM12 colon it was 6.52 µM; with MDA-MB-435, 13.7 µM; in the assay on OVCAR-3 ovarian, 3.25 µM; in the assay on SK-MEL-28 melanoma, 14.1 µM. Also, the TGI in the assay with SNB-19 CNS was found to be 16.2 µM; with SNB-75 CNS it was 5.09 µM.
As to `O=C(Cc1nc2ccc([N+](=O)[O-])cc2[nH]c1=O)C(=O)Nc1cc(Cl)c(Cl)cc1Cl`, the TGI in the assay with A498 renal, in the assay on HCT-15 colon, in the assay on KM12 colon, in the assay on MDA-MB-435, in the assay with OVCAR-3 ovarian and in the assay with SK-MEL-28 melanoma was above 100 µM each time. Also, the TGI in the assay on SNB-19 CNS and in the assay on SNB-75 CNS was above 100 µM in each case.
